Converted amounts (≈) assume the structure as drawn. Non-standard residues stand in square brackets, D forms with d. Residues, ends and D or L forms follow the SMILES beside them. Nspe = C[C@H](NCC(=O)O)c1ccccc1; Nlys = NCCCCNCC(=O)O
Assays:
S. aureus = format: cell-based; conditions: Iso-sensitest broth, 96-well, 2-100 µM 1:2 serial dilutions, 38 °C 16 h with shaking, absorbance; lowest concentration completely inhibiting growth; triplicate, minimum of two occasions
Procedure: (§1) Bacterial cultures were prepared by streaking the bacterial strain from a 4°C- or frozen stock culture to single colonies onto agar plates (containing the appropriate antibiotic for strains carrying antibiotic resistance plasmids) with an inoculation loop, followed by overnight incubation at 37 °C.
(§2) Primary overnight (o/n) cultures were prepared by inoculating a single colony from a streak plate into 5 mL of LB broth in a screw-capped culture tube, that was placed on a tube rotator at 37 °C (or 30 °C for sensitive strains) for overnight incubation. Before the usage of stock cultures the strains genotype were checked. Primary stocks were stored at 4°C for up to 6 weeks and always replaced from fresh colonies.
(§3) Fresh cultures used for experiments contained 0.1-0.5 mL o/n culture diluted into 8 mL of fresh medium in a standard test tube. Placed in a shaking water bath or on a tube rotator the bacteria were grown at the required temperature to the required cell density. Frozen stock cultures used for long term storage that can remain viable for 10 years were prepared by mixing 2.5 mL fresh o/n culture with 1.5 mL sterile 80% glycerol in a 5 mL sterile blood tube and stored at -20 °C.
(§4) MIC values were attained according to the previously described protocol4 and were conducted in 96-well plates (Costar, Fisher Scientific). Using the pre-prepared cultures, an innoculum density of 0.07 at 650 nm was set by comparing the absorbance with 0.5 MacFarland standard (240 μM BaCl2 in 0.18 M H2SO4). The innoculum was then diluted down ten-fold with Iso-sensitest broth (Oxoid, ThermoScientific) before use. Peptoids were initially dissolved in DMSO (5 mM) and then diluted further with Iso-sensitest broth to achieve a concentration range of 4 – 200 µM using 1 : 2 serial dilutions. 50 μl of innoculum and 50 μL of peptoid solution were added to each test well (final concentration range of 2 – 100 µM). Positive control containing only innoculum and Iso-sensitest broth; negative control containing inoculum and serial dilutions of ampicillin (from 250 microgram/mL to 2 microgram per mL); DMSO control containing innoculum and serial dilutions of DMSO; and Iso-sensitest broth were used as a sterile control. […] Quantitative data was attained from absorbance values using a microplate reader.

E. coli = format: cell-based; conditions: Iso-sensitest broth, 96-well, 2-100 µM 1:2 serial dilutions, 38 °C 16 h with shaking, absorbance; lowest concentration completely inhibiting growth; triplicate, minimum of two occasions
Procedure: as §1, §2, §3, §4

[1] = Average hydrophobicity by analytical reverse-phase HPLC retention; format: physicochemical
Procedure: To examine the average hydrophobicity of the peptoids, the retention time for from reverse‐phase HPLC was determined on a C18 column using acetonitrile and water, with 0.1% TFA (see Figure 3A). To find log D values, partitioning experiments were carried out, as illustrated by Figure 2. A peptoid solution (between 10 and 100 µM) in PBS was added to an equal volume of octanol and the system allowed to equilibrate under gentle agitation for ∼150 h (as 48 h was not found to be sufficient for the system to reach equilibrium). At this point it is assumed that the peptoid has partitioned between these two phases, such as to minimise its free energy.
Preparative RP‐HPLC was performed with a semi‐preparative Perkin Elmer Series 200 lc pump fitted with a 785A UV/Vis detector using a SB‐Analytical ODH‐S optimal column (250 mm × 10 mm, 5 µm); flow rate 2 mL min^−1; λ = 250 nm, typical linear gradient elution 0–50% of solvent B over 60 min (A = 0.1% TFA in 95% H2O and 5% MeCN, B = 0.1% TFA in 5% H2O and 95% MeCN). Analytical RP‐HPLC was performed with a Perkin Elmer Series 200 LC pump fitted with a Series 200 UV/Vis detector using a SB‐Analytical ODH‐S optimal column (100 mm × 1.6 mm, 3.5 µm); flow rate 1 mL min^−1; λ = 220 nm, linear gradient elution 0–100% of solvent B over 30 min (A = 0.05% TFA, 95% H2O, 5% MeCN, B = 0.03% TFA, 5% H2O, 95% MeCN).
Preparative RP-HPLC was performed with a semi-preparative Perkin Elmer Series 200 lc pump fitted with a 785A UV/Vis detector using a SB-Analytical ODH-S optimal column (250 × 10 mm, 5 µm); flow rate 2 ml min^−1; λ = 250 nm, typical linear gradient elution 0-50% of solvent B over 60 min (A = 0.1% TFA in 95% H2O and 5% MeCN, B = 0.1% TFA in 5% H2O and 95% MeCN). Analytical RP-HPLC was performed with a Perkin Elmer Series 200 LC pump fitted with a Series 200 UV/Vis detector using a SB-Analytical ODH-S optimal column (100 × 1.6 mm, 3.5 µm); flow rate 1 ml min^−1; λ = 220 nm, linear gradient elution 0-100% of solvent B over 30 min (A = 0.05% TFA, 95% H2O, 5% MeCN, B = 0.03% TFA, 5% H2O, 95% MeCN).
Table S3. Data from analytical RP-HPLC for representative compounds of this peptoid library. Analytical HPLC gradient: 0 – 100% solvent B over 30 min at 220 nm (where solvent A = 95% H2O, 5% MeCN, 0.05 % TFA; solvent B = 95% MeCN, 5% H2O, 0.03% TFA).

[2] = system: L. mexicana promastigotes; assay: Cytotoxicity assay with Leishmania mexicana M379 promastigotes (alamarBlue); format: cell-based; conditions: 1 h pre-incubation with compound, then 24 h incubation, alamarBlue 4 h, fluorescence Ex 560/Em 600 nm, triplicate, minimum of two separate occasions, ED50 = median effective dose
Procedure: Leishmania mexicana (M379) promastigote parasites were maintained at 26 °C in Schneider's Insect medium (Sigma-Aldrich) supplemented with heat-inactivated foetal bovine sera (FBS, 15%; Biosera Ltd). Cells were counted using a Neubauer Improved Haemocytometer. Promastigotes were transformed into axenic amastigotes by a pH and temperature shift as previously described.5 A culture of recently transformed (three days) promastigotes in the late log phase was transferred into Schneider's Insect medium supplemented with 20% heat-inactivated FBS (pH 5.5) at 5 x 10^5 parasites/mL. […] After additional 5–7 days, the parasites should be in the amastigote stage and be ready for cytotoxicity studies and infections.
Cytotoxicity analyses were performed in 96-well plates (Costar, Fisher Scientific) using alamarBlue (Invitrogen) for cell viability detection as previously described.6 Promastigote and amastigote L. mexicana were pre-incubated with the compounds in triplicate (5 mM stock solutions in DMSO; Amphotericin B was used as a positive control; untreated parasites with DMSO as a negative control) in 50 µL of the corresponding media at 4 x 106 mL-1 for 1 hour. […] Then, 10 µL alamarBlue solution (Invitrogen) was added to each well for an incubation of 4 hours prior to assessing cell viability using a fluorescent plate reader (Biotek; Ex 560 nm / Em 600 nm). […]

With C[C@@H](c1ccccc1)N(CC(N)=O)C(=O)CN(C(=O)CN(CCCCN)C(=O)CN(C(=O)CN(C(=O)CN(CCCCN)C(=O)CN(C(=O)CN(C(=O)CN(CCCCN)C(=O)CN(C(=O)CN(C(=O)CNCCCCN)[C@@H](C)c1ccccc1)[C@@H](C)c1ccccc1)[C@@H](C)c1ccccc1)[C@@H](C)c1ccccc1)[C@@H](C)c1ccccc1)[C@@H](C)c1ccccc1)[C@@H](C)c1ccccc1 [Peptoid 4] (H-[Nlys][Nspe][Nspe][Nlys][Nspe][Nspe][Nlys][Nspe][Nspe][Nlys][Nspe][Nspe]-NH2) the “MIC S. aureus” value (S. aureus) was 2 µM (≈ 3.64 µg/mL), the “MIC E. coli” value (E. coli) was 25 µM (≈ 45.5 µg/mL) and the “RP-HPLC Retention (% MeCN)” value ([1]; Supplement table 4 (chemical and physical data for peptoid library), % MeCN at elution in RP-HPLC) was 42 % MeCN. For the same compound, the “HPLC RT” value ([1]; Table 2 / main text, chromatographic, RP-HPLC C18 retention time as measure of average hydrophobicity, gradient 0-100% solvent B over 30 min, 220 nm, 1 mL/min, A = 0.05% TFA, 95% H2O, 5% MeCN, B = 0.03% TFA, 5% H2O, 95% MeCN, around pH 2.2) was 14.9 min and the “ED50 L. mex prom.” value [2] was 8 µM.

— article PMC5519928, “Log D versus HPLC derived hydrophobicity: The development of predictive tools to aid in the rational design of bioactive peptoids” (Biopolymers, 2017)
